Measured values reported in patent publication US7767240B2, “Microbiological control in poultry processing” (priority 2001, dated 2010).

Columns and labels:
[1] = tested on: Salmonella; experiment: Salmonella positive samples, simulated USDA HACCP detection (Example 7); format: cell-based, Salmonella enteritidis; details: 20 ppm (Cl2 equivalent) during chilling; for Salmonella positive samples (Number 51): birds inoculated with Salmonella prior to chilling, control 21/51; for Salmonella positive samples (%): control 41.18%
Description: After normal processing of 56-day-old birds, carcasses were immersed first in a warm bath containing 10^4 per mL Escherichia coli, 10^4 per mL Salmonella enteritidis, 10^4 per mL Pseudomonas aeruginosa, 10^4 per mL Campylobacter jejuni, and 10^4 per mL spoilage bacteria each from two strains (Listeria monocytogenes and Shigella sonnei). Carcasses were then immersed in a chill tank “soup”, containing normal organic fluids (blood, fat, skin, and meat particles) and containing various disinfectants (termed test materials). These whole bird bacteria count tests were conducted at pH 8. The effect of the test compounds on skin pigmentation was determined by use of Minolta Color Meter L value or Lightness, a value or redness and b value or yellowness. Post-chilling skin bacteria of various strains were determined over a 20-day period. Spoilage, using sensory odors as a model, determined time required to create a putrid/ammonia-like odor. After salmonella infection in chill tanks, USDA HACCP salmonella detection was simulated and reported.
DBDMH and BCDMH stock solutions and diluted test solutions (20 ppm Cl2 equivalent), a bacteria stock solution, and a “chicken soup” were prepared as in Example 3 except that the Stabrom® 909 biocide concentrate was diluted by adding 30 mL per liter of water just prior to application. This diluted solution was sprayed on the birds, both inside and outside, in quantities of 200 mL per bird. In addition, the bacterial broth treatments, the whole bird wash sampling procedure, and the methodologies used for quantitative or qualitative determinations for bacterial organisms were conducted as in Example 3.
The details concerning the trial events used as well as the detailed experimental design used in these tests were the same as described in Example 6. The only exceptions were: • a) In the case of the birds of Test Group 5 (note Table 38), while the carcass was still warm, the 10 birds were each sprayed both internally and externally, using a misting hand-held nozzle, with 200 mL of the 3% solution of Stabrom 909 biocide (SSBC). […] The spray was allowed to stay on the warm carcasses for 60 seconds. • b) The treatment on sampling day 0 of 102 total of the remaining 110 carcasses from each treatment involving “whole bird” washing and Salmonella detection, all as described in Example 6, was applied only to the birds of Test Groups 1-4 (note Table 38).

[2] = tested on: total aerobic bacteria; experiment: Whole bird total aerobic bacteria, chill tank soup at pH 7, 8, 9 (Example 3); format: cell-based; details: 50 birds per treatment
Protocol: This group of tests was conducted to determine the effect of Clorox® bleach, Aquatize® biocide, and 1,3-dibromo-5,5-dimethylhydantoin (DBDMH) on carcass bacteria (Escherichia coli field strain) residual after 1,5-hour in a chill tank “soup”. Tests were conducted with soups at pH 7, pH 8 and pH 9 (adjusted by trisodium phosphate) for whole bird bacteria counts. Tests at pH 8 were conducted for individual bacteria counts.
In general the tests involved normal processing of 56-day-old birds and immersing the carcasses first in a warm bath containing 10^4 per mL Escherichia coli, 10^4 per mL Salmonella enteritidis, 10^4 per mL Pseudomonas aeruginosa, 10^4 per mL Campylobacter jejuni, and 10^4 per mL spoilage bacteria each from […] strains (Listeria monocytogenes and Shigella sonnei). The carcasses were then immersed in a chill tank “soup”, containing normal organic fluids (blood, fat, skin, and meat particles) and containing the microbiocides on the test.
The procedure used for whole bird wash sampling was as follows: • 1. All samples were kept at ≦50 degrees Fahrenheit following collection. • 2. Microbiological analyses of samples began within 24 hours of sample collection. • 3. Information on the individual sample identification, date of collection, time of collection (phase during shift), treatment group and location of sample point were recorded on each sample bottle. • 4. At each defined sample time, carcasses were taken individually from the processing line wearing latex or rubber gloves. The gloves were rinsed with alcohol between each collection. • 5. Any excess fluid was drained off from the carcass. Each individual carcass was transferred to a sterile stomacher bag. • 6. To each carcass contained in the sterile stomacher bag, 400 mL of Butterfield's Phosphate Diluent (BPD) was added while making sure to pour the BPD into the inside of the carcass cavity. The carcass was rinsed inside and out with a rocking motion for one minute (ca. 35 RPM). This was best done by grasping the broiler carcass with one hand and the closed top of the bag with the other then rocking with a reciprocal motion in a 18-24 inch arc, assuring that all surfaces (interior and exterior of the carcass) were rinsed. • 7. The rinse solutions from each stomacher bag was transferred into the sample bottles, taking care to ensure that the information on the date of collection, time of collection (phase during shift), treatment group and location of sampler point matched that of the sample. • 8. Each bottle was sealed with parafilm and placed into a styrene container with crushed or dry ice or frozen freezer packs for overnight delivery to a testing laboratory. • 9. All filled styrene containers were held in a chilled (not below freezing) area until within 1 to 2 hours of courier collection for shipment.
Aerobic plate counts—Counting rules according to BAM 8th ed., Chapter 3.
In greater detail the trial events and experimental design used in this group of tests were as follows: • a) Test microorganisms used were: • Escherichia coli ATCC 11229 • Pseudomonas aeruginosa ATCC 15442 • Salmonella enteritidis ATCC 13076 • Shigella sonnei ATCC 9290 • Listeria monocytogenes ATCC 7644 • Campylobacter jejuni ATCC 29428 • b) Test Procedure: All test strains were grown individually at 35° C. for 24 hours in the media specified in Table 12. Cells were harvested by centrifugation at 10,000×g for 10 minutes and washed twice with Butterfield's Phosphate Buffer (BPB of pH 7.2). Cells were resuspended in BPB to obtain a cell suspension of approximately 1.0×10^8 CFU/mL for each microorganism. The target inoculum levels were approximately 10^6 CFU/mL in the final test solutions. In the cases of S. enteritidis and P. aeruginosa the species were washed by pouring into prepared sterile centrifuge tubes with cheesecloth filters. […]

CC1(C)C(=O)N(Cl)C(=O)N1Br [BCDMH, N,N′-bromochloro-5,5-dimethylhydantoin]
Salmonella positive samples (Number 51) [1]: 6/51 | Salmonella positive samples (%) [1]: 11.76%

CC1(C)C(=O)N(Br)C(=O)N1Br [DBDMH, 1,3-dibromo-5,5-dimethylhydantoin]
Whole Bird Total Aerobic Bacteria (% Reduction) ([2]; Water pH 7, 10 ppm Cl2 equivalent): 85% | Whole Bird Total Aerobic Bacteria (% Reduction) ([2]; Water pH 7, 20 ppm Cl2 equivalent): 99% | Whole Bird Total Aerobic Bacteria (% Reduction) ([2]; Water pH 8, 10 ppm Cl2 equivalent): 82% | Whole Bird Total Aerobic Bacteria (% Reduction) ([2]; Water pH 8, 20 ppm Cl2 equivalent): 98% | Whole Bird Total Aerobic Bacteria (% Reduction) ([2]; Water pH 9, 10 ppm Cl2 equivalent): 78% | Whole Bird Total Aerobic Bacteria (% Reduction) ([2]; Water pH 9, 20 ppm Cl2 equivalent): 96% | Salmonella positive samples (Number 51) [1]: 1/51 | Salmonella positive samples (%) [1]: 1.96%
